The LD50 is the dose expected to kill half of the subjects tested. Higher therefore signals lower toxicity.

Counter-ions that a name gives are not always drawn. Like-named read-outs stand apart in the source and are kept apart here.

The record followed here is patent EP0049060A1, “Imidazoles” (BEECHAM GROUP PLC, priority 1980, dated 1982).

The test system of series [1] is mice. Nature of the series: Potentiation of the Effects of 5-Hydroxytryptophan (anti-convulsant activity of 5 HTP, electroshock threshold). The class given is in vivo. To be noted: for ED100: Mus musculus, po, dose increasing the elevation of electroshock threshold due to 5HTP by 100%. As for the experimental part:
(§1) The ability of the compounds of this invention to potentiate catecholaminesand 5-hydroxytryptamine was examined using the test methods (1) and (2) below, respectively. These tests are indicative of anti-depressant activity.
(2) Potentiation of the Effects of 5-Hydroxytryptophan
5 HTP Potentiation was measured in mice using the potentiation of the anti-convulsant activity of 5 HTP originally-described by Buus Lassen J., (1975), Psychopharmacol, 42, 21-6. Mice (10/group) were pretreated with the compounds under investigation and 30' later received a sub-threshold level dose of L-5 HTP (100 mg/kg ip). 30 minutes later they were subjected to electroshock and the shock level (in V) required to cause tonic extensor spasm in 50% of the mice determined for all groups.
The dose of compounds required to increase the elevation of electroshock threshold due to 5HTP by 100% is determined graphically.

The test system of series [2] is mice. Nature of the series: Prevention of Reserpine-induced Hypothermia. The class given is in vivo. The following applies: Mus musculus, p.o., oral doses 24, 18 and 2 hours before 1 mg/kg i.v. reserpine, active = significant at p<0.05, read-out: Res Prev (lowest active dose).
Excerpt: as §1
(1) Prevention of Reserpine-induced Hypothermia
The method of Spencer in "Anti-Depressant Drugs: Proceedings of the 1st International Symposium", p 184-204. Ed. Garattini, S and Dukes MNG, Excerpta Med Foundation, Amsterdam, 1967, was used. Groups of 5 mice were given oral doses of the test compound 24 hours, 18 hours and 2 hours before an intravenous injection of 1 mg/kg reserpine base. The oral temperatures of the mice were taken immediately before the administration of the reserpine and 6 hours afterwards. Mean temperatures of groups given test compounds are compared with the mean temperatures of the reserpinised controls using the Students t test. Compounds causing significant difference at the level p<0.05 are considered active at that dose.

Series [3] can be described thus: Acute toxicity (LD50) in mice. The following applies: mouse, in vivo, po.
Series [4] has as its system mice. In words: Acute toxicity (LD50) in mice. The following applies: initial tests.
Series [5] concerns the target T1, A-form of monoamine oxidase (Homo sapiens, UniProt P21397).
T1 sequence (P21397 1-527): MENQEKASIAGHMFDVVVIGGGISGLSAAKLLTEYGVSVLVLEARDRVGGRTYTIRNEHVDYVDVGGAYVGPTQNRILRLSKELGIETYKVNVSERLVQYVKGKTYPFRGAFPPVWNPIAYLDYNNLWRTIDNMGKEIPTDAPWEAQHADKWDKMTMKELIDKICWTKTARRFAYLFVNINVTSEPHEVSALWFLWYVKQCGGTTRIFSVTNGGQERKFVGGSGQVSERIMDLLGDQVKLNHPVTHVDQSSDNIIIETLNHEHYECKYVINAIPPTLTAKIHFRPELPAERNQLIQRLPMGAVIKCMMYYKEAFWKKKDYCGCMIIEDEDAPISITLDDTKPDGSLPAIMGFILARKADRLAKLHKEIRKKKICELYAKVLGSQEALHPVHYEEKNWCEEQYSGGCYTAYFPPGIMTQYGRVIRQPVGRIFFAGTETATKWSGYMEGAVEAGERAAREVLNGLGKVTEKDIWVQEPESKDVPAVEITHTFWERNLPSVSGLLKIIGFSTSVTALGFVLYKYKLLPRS
In words: Monoamine oxidase A inhibition (other initial tests). The series is classed as biochemical.

The mark [6] stands for this setting: read-out: 5-HTP Potentiation, ED100.

For `Cc1nccn1CCCCOc1ccc(Cl)cc1` [Example 3, 1-(4'-Chlorophenoxybutyl)-2-methyl imidazole], the ED100 in the series on mice [1] (read-out: 5 HTP pot ED100) amounted to 16 mg/kg. The minimal effective dose in the series on mice [2] was 100 mg/kg.
For `Cc1nccn1CCOc1cccc(Cl)c1` [Example 6], in that order: 7 mg/kg and 100 mg/kg.
Consider `Cc1nccn1CCOc1ccccc1Cl` [Example 7], for which the minimal effective dose in the series with mice [2] is 100 mg/kg.
With `CCc1nccn1CCOc1ccc(Cl)cc1Cl` [Example 23, 1-(2',4'-Dichlorophenoxyethyl)-2-ethylimidazole maleate], the ED100 in the series with mice [1] (setting [6]) came out at 53 mg/kg.
In the case of `Cc1nccn1CCCOc1ccc(Cl)cc1` [Example 2, 1-(4'-Chlorophenoxypropyl)-2-methyl imidazole], the ED100 with mice [1] (read-out: 5 HTP pot ED100) is 3 mg/kg. Also, the minimal effective dose with mice [2] amounted to 3 mg/kg.
For the compound `Cc1nccn1CCOc1ccc(Cl)cc1Cl` [Example 8, 1-(2',4'-Dichlorophenoxyethyl)-2-methylimidazole], the ED100 in the series on mice [1] (read-out: 5 HTP pot ED100) stood at 20 mg/kg. Moreover, the minimal effective dose in the series with mice [2] is 10 mg/kg.
For `Cc1nccn1CCOc1ccc(F)cc1` [Example 4], in that order: 1 mg/kg and 100 mg/kg.
Take `COc1ccc(OCCn2ccnc2C)cc1` [Example 5]: the minimal effective dose with mice [2] worked out at 10 mg/kg.
With `Cc1cc(OCCn2ccnc2C)cc(C)c1Cl` [Example 19, 1-(4'-Chloro-3',5'-dimethylphenoxyethyl)-2-methylimidazole maleate], the “5-HTP Potentiation, % Change of control at x mg/kg, p.o.” value (“5-HTP Potentiation, % Change … p.o.” for short) in the series on mice [1] (at 100 mg/kg p.o.) is 77% at 100.
Take `Cc1nccn1CCOc1ccc(Br)cc1Br.O=C(O)/C=C\C(=O)O` [Example 15, 1-(2',4'-Dibromophenoxyethyl)-2-methylimidazole maleate]: the ED100 with mice [1] (setting [6]) was determined as 34 mg/kg.
Still for that read-out and setting: with `Cc1nccn1CCOc1ccc(Cl)c(Cl)c1` [Example 10, 1-(3',4'-Dichlorophenoxyethyl)-2-methylimidazole] the figure was 12 mg/kg.
In the case of `Cc1cc(Cl)ccc1OCCn1ccnc1C` [Example 18, 1-(4'-Chloro-2'-methylphenoxyethyl)-2-methylimidazole maleate], the ED100 with mice [1] (setting [6]) amounted to 10 mg/kg.
With `Cc1nccn1CCCOc1ccc(F)cc1` [Example 9], the ED100 in the series with mice [1] (read-out: 5 HTP pot ED100) was determined as 10 mg/kg.
As to `Cc1nccn1CCOc1cc(Cl)cc(Cl)c1.O=C(O)/C=C\C(=O)O` [Example 11, 1-(3',5'Dichlorophenoxyethyl)-2-methylimidazole maleate], the ED100 in the series on mice [1] (setting [6]) amounted to 18 mg/kg.
Still for that read-out and setting: the value for `Cc1nccn1CCOc1ccccc1` [Example 20, 1-(2'-Phenoxyethyl)-2-methylimidazole] was 10 mg/kg.
On to “1-(2',4'-Dichlorophenoxyethyl)-4(5)-methylimidazole maleate [Example 22]”, for which the “5-HTP Potentiation, % Change … p.o.” value in the series with mice [1] (at 30 mg/kg p.o.) came out at 138% at 30.
Take `Cc1nccn1CCOc1cccc(C(F)(F)F)c1` [Example 21, 1-(3'-Trifluoromethylphenoxyethyl)-2-methylimidazole maleate]: the ED100 in the series with mice [1] (setting [6]) worked out at 26 mg/kg.
Same read-out and setting: the value for `Cc1nccn1CCOc1cccc(Cl)c1Cl` [Example 12, 1-(2',3'-Dichlorophenoxyethyl)-2-methylimidazole maleate] was 28 mg/kg; that for `Cc1nccn1CCOc1cc(Cl)ccc1Cl` [Example 13, l-(2',5'-Dichlorophenoxyethyl)-2-methylimidazole maleate] was 19 mg/kg.
As for `Cc1nccn1CCOc1ccc(Cl)cc1` [Example 1, 1-(4'-Chlorophenoxyethyl)-2-methyl imidazole], the ED100 with mice [1] (read-out: 5 HTP pot ED100) stood at 5 mg/kg. The minimal effective dose in the series with mice [2] is 10 mg/kg.
Consider `Cc1nccn1CCOc1c(Cl)cccc1Cl` [Example 14, 1-(2',6'-Dichlorophenoxyethyl)-2-methylimidazole maleate], for which the ED100 in the series with mice [1] (setting [6]) came to 9 mg/kg.
For the compound `Cc1nccn1CCOc1ccc(Br)cc1Cl` [Example 16, l-(4'-Bromo-2'-chlorophenoxyethyl)-2-methylimidazole maleate], the “5-HTP Potentiation, % Change … p.o.” value in the series with mice [1] (at 30 mg/kg p.o.) turned out to be 96% at 30.
For `Cc1nccn1CCOc1ccc(Cl)cc1Cl` [formula (II)"], in series [3], the LD50 is > 900 mg/kg. The level of toxicity entry in the series with mice [4] is given as “low level of toxicity”. Besides, in series [5], the “inhibitor of the A-form of monoamine oxidase” value is “selective and reversible inhibitor”.
`Cc1nccn1CCOc1cc(Cl)c(Cl)c(Cl)c1` [Example 17, 1-(3',4',5'-Trichlorophenoxyethyl)-2-methylimidazole maleate]: the ED100 in the series with mice [1] (setting [6]) stood at 70 mg/kg.
